Experimental data taken from ChEMBL document CHEMBL3992518, “Peptide Macrocycle Inhibitor of Coagulation Factor XII with Subnanomolar Affinity and High Target Selectivity” (J Med Chem, 2017).
*1 amine or outer side, *2 acyl side, *3 side chain or, on linkers, in order; H or OH if unused. Where a SMILES comes first, the peptide text is derived from it. Bridges are numbered along the chain shown (N, C = ends). [ ]: non-standard residue; d: D form. TATA = O=C(CC[*:1])N1CN(C(=O)CC[*:2])CN(C(=O)CC[*:3])C1; tBuAla = CC(C)(C)C[C@H](N)C(=O)O; hLys = NCCCCC[C@H](N)C(=O)O

Molecular target: T1, Coagulation factor XII (Homo sapiens, UniProt P00748)
T1 sequence (P00748 whole entry): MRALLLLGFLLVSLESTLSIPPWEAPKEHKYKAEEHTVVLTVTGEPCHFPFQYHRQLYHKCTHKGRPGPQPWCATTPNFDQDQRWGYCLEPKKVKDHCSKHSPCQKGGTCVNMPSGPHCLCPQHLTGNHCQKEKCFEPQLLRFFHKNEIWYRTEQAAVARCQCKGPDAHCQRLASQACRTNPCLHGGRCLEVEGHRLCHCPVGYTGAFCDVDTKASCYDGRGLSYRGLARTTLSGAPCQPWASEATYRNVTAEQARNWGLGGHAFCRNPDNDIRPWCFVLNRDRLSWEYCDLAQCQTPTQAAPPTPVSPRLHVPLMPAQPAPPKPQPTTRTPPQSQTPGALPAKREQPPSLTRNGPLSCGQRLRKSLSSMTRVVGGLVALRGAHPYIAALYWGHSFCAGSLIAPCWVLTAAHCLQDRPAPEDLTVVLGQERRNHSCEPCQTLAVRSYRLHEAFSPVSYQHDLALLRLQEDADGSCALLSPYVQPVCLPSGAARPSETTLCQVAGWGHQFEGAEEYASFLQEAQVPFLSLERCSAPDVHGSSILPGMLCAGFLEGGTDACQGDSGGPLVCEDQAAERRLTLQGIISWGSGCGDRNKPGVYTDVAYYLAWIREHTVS
Experiment: Inhibition of human beta factor 12a using fluorogenic substrate Boc-Gln-Gly-Arg-AMC preincubated for 10 mins followed by addition of substrate measured every min for 30 mins

Structure (SMILES) | Ki [nM]
CC(C)C[C@@H]1NC(=O)[C@H](CCC(=O)O)NC(=O)[C@H](CCCNC(=N)N)NC(=O)[C@@H]2CSCCC(=O)N3CN(CN(C3)C(=O)CCSC[C@H](NC(=O)[C@@H](N)CCCNC(=N)N)C(=O)N[C@@H](Cc3ccccc3)C(=O)N[C@@H](CCCNC(=N)N)C(=O)N[C@@H](CC(C)C)C(=O)N3CCC[C@H]3C(=O)N2)C(=O)CCSC[C@@H](C(=O)N[C@@H](CCCNC(=N)N)C(=O)N[C@@H](Cc2c[nH]c3ccccc23)C(=O)O)NC(=O)[C@H](CCCNC(=N)N)NC1=O (H-RCFRLPCRELRCRW-OH; linker 2-7-12 via TATA) | > 3000
CC(C)C[C@@H]1NC(=O)[C@H](CCC(N)=O)NC(=O)[C@H](CCCNC(=N)N)NC(=O)[C@@H]2CSCCC(=O)N3CN(CN(C3)C(=O)CCSC[C@H](NC(=O)[C@@H](N)CCCNC(=N)N)C(=O)N[C@@H](Cc3ccc4ccccc4c3)C(=O)N[C@@H](CCCNC(=N)N)C(=O)N[C@@H](CC(C)C)C(=O)N3CCC[C@H]3C(=O)N2)C(=O)CCSC[C@@H](C(=O)N[C@@H](CCCNC(=N)N)C(=O)N[C@@H](Cc2c[nH]c3ccccc23)C(=O)O)NC(=O)[C@H](CCCNC(=N)N)NC1=O | 6
CC(C)C[C@@H]1NC(=O)[C@H](CCC(N)=O)NC(=O)[C@H](CCCNC(=N)N)NC(=O)[C@@H]2CSCCC(=O)N3CN(CN(C3)C(=O)CCSC[C@H](NC(=O)[C@@H](N)CCCNC(=N)N)C(=O)N[C@@H](Cc3ccccc3)C(=O)N[C@@H](CCCNC(=N)N)C(=O)N[C@@H](CC(C)C)C(=O)N[C@@H](C(C)C)C(=O)N2)C(=O)CCSC[C@@H](C(=O)N[C@@H](CCCNC(=N)N)C(=O)N[C@@H](Cc2c[nH]c3ccccc23)C(=O)O)NC(=O)[C@H](CCCNC(=N)N)NC1=O (H-RCFRLVCRQLRCRW-OH; linker 2-7-12 via TATA) | 47
CC(C)C[C@@H]1NC(=O)[C@H](CCC(N)=O)NC(=O)[C@H](CCCNC(=N)N)NC(=O)[C@@H]2CSCCC(=O)N3CN(CN(C3)C(=O)CCSC[C@H](NC(=O)[C@@H](N)CCCNC(=N)N)C(=O)N[C@@H](Cc3ccccc3)C(=O)N[C@@H](CCCNC(=N)N)C(=O)N[C@@H](C)C(=O)N3CCC[C@H]3C(=O)N2)C(=O)CCSC[C@@H](C(=O)N[C@@H](CCCNC(=N)N)C(=O)N[C@@H](Cc2c[nH]c3ccccc23)C(=O)O)NC(=O)[C@H](CCCNC(=N)N)NC1=O (H-RCFRAPCRQLRCRW-OH; linker 2-7-12 via TATA) | > 3000
CC(C)C[C@@H]1NC(=O)[C@H](CC(=O)O)NC(=O)[C@H](CCCNC(=N)N)NC(=O)[C@@H]2CSCCC(=O)N3CN(CN(C3)C(=O)CCSC[C@H](NC(=O)[C@@H](N)CCCNC(=N)N)C(=O)N[C@@H](Cc3ccccc3)C(=O)N[C@@H](CCCNC(=N)N)C(=O)N[C@@H](CC(C)C)C(=O)N3CCC[C@H]3C(=O)N2)C(=O)CCSC[C@@H](C(=O)N[C@@H](CCCNC(=N)N)C(=O)N[C@@H](Cc2c[nH]c3ccccc23)C(=O)O)NC(=O)[C@H](CCCNC(=N)N)NC1=O (H-RCFRLPCRDLRCRW-OH; linker 2-7-12 via TATA) | 550
CSCC[C@@H]1NC(=O)[C@H](CCCNC(=N)N)NC(=O)[C@H](Cc2ccccc2)NC(=O)[C@@H](NC(=O)[C@@H](N)CCCNC(=N)N)CSCCC(=O)N2CN3CN(C2)C(=O)CCSC[C@H](NC(=O)[C@@H]2CCCN2C1=O)C(=O)N[C@@H](CCCNC(=N)N)C(=O)N[C@@H](CCC(N)=O)C(=O)N[C@@H](CC(C)C)C(=O)N[C@@H](CCCNC(=N)N)C(=O)N[C@H](C(=O)N[C@@H](CCCNC(=N)N)C(=O)N[C@@H](Cc1c[nH]c2ccccc12)C(=O)O)CSCCC3=O (H-RCFRMPCRQLRCRW-OH; linker 2-7-12 via TATA) | > 3000
CC(C)C[C@@H]1NC(=O)[C@H](CCC(N)=O)NC(=O)[C@H](CCCNC(=N)N)NC(=O)[C@@H]2CSCCC(=O)N3CN(CN(C3)C(=O)CCSC[C@H](NC(=O)[C@@H](N)CCCNC(=N)N)C(=O)N[C@@H](Cc3ccccc3)C(=O)N[C@@H](CCCNC(=N)N)C(=O)N[C@@H](CC(C)(C)C)C(=O)N3CCC[C@H]3C(=O)N2)C(=O)CCSC[C@@H](C(=O)N[C@@H](CCCNC(=N)N)C(=O)N[C@@H](Cc2c[nH]c3ccccc23)C(=O)O)NC(=O)[C@H](CCCNC(=N)N)NC1=O (H-RCFR[tBuAla]PCRQLRCRW-OH; linker 2-7-12 via TATA) | > 3000
CC(C)C[C@@H]1NC(=O)[C@H](CCC(N)=O)NC(=O)[C@H](CCCNC(=N)N)NC(=O)[C@@H]2CSCCC(=O)N3CN(CN(C3)C(=O)CCSC[C@H](NC(=O)[C@@H](N)CCCNC(=N)N)C(=O)N[C@@H](Cc3c[nH]c4ccccc34)C(=O)N[C@@H](CCCNC(=N)N)C(=O)N[C@@H](CC(C)C)C(=O)N3CCC[C@H]3C(=O)N2)C(=O)CCSC[C@@H](C(=O)N[C@@H](CCCNC(=N)N)C(=O)N[C@@H](Cc2c[nH]c3ccccc23)C(=O)O)NC(=O)[C@H](CCCNC(=N)N)NC1=O (H-RCWRLPCRQLRCRW-OH; linker 2-7-12 via TATA) | 12
CC(C)C[C@@H]1NC(=O)[C@H](CCC(N)=O)NC(=O)[C@H](CCCNC(=N)N)NC(=O)[C@@H]2CSCCC(=O)N3CN(CN(C3)C(=O)CCSC[C@H](NC(=O)[C@@H](N)CCCNC(=N)N)C(=O)N[C@@H](Cc3ccccc3)C(=O)N[C@@H](CCCNC(=N)N)C(=O)N[C@@H](CC(C)C)C(=O)N[C@@H](CC(=O)O)C(=O)N2)C(=O)CCSC[C@@H](C(=O)N[C@@H](CCCNC(=N)N)C(=O)N[C@@H](Cc2c[nH]c3ccccc23)C(=O)O)NC(=O)[C@H](CCCNC(=N)N)NC1=O (H-RCFRLDCRQLRCRW-OH; linker 2-7-12 via TATA) | 120
CC(C)C[C@@H]1NC(=O)[C@H](CCC(N)=O)NC(=O)[C@H](CCCNC(=N)N)NC(=O)[C@@H]2CSCCC(=O)N3CN(CN(C3)C(=O)CCSC[C@H](NC(=O)[C@@H](N)CCCNC(=N)N)C(=O)N[C@@H](Cc3csc4ccccc34)C(=O)N[C@@H](CCCNC(=N)N)C(=O)N[C@@H](CC(C)C)C(=O)N3CCC[C@H]3C(=O)N2)C(=O)CCSC[C@@H](C(=O)N[C@@H](CCCNC(=N)N)C(=O)N[C@@H](Cc2c[nH]c3ccccc23)C(=O)O)NC(=O)[C@H](CCCNC(=N)N)NC1=O | 6.8
CC(C)C[C@@H]1NC(=O)[C@H](CCC(N)=O)NC(=O)[C@H](CCCNC(=N)N)NC(=O)[C@@H]2CSCCC(=O)N3CN(CN(C3)C(=O)CCSC[C@@H](C(=O)N[C@@H](CCCNC(=N)N)C(=O)O)NC(=O)[C@H](CCCNC(=N)N)NC1=O)C(=O)CCSC[C@H](NC(=O)[C@H](C)N)C(=O)N[C@@H](Cc1ccccc1)C(=O)N[C@@H](CCCNC(=N)N)C(=O)N[C@@H](CC(C)C)C(=O)N1CCC[C@H]1C(=O)N2 (H-ACFRLPCRQLRCR-OH; linker 2-7-12 via TATA) | 59.2

Further molecules by falling Ki, results first:

Ki [nM] | Structure (SMILES)
890 | CC[C@H](C)[C@@H]1NC(=O)[C@H](CCCNC(=N)N)NC(=O)[C@H](Cc2ccccc2)NC(=O)[C@@H](NC(=O)[C@@H](N)CCCNC(=N)N)CSCCC(=O)N2CN3CN(C2)C(=O)CCSC[C@H](NC(=O)[C@@H]2CCCN2C1=O)C(=O)N[C@@H](CCCNC(=N)N)C(=O)N[C@@H](CCC(N)=O)C(=O)N[C@@H](CC(C)C)C(=O)N[C@@H](CCCNC(=N)N)C(=O)N[C@H](C(=O)N[C@@H](CCCNC(=N)N)C(=O)N[C@@H](Cc1c[nH]c2ccccc12)C(=O)O)CSCCC3=O (H-RCFRIPCRQLRCRW-OH; linker 2-7-12 via TATA)
290 | CC(C)C[C@@H]1NC(=O)[C@H](CCC(N)=O)NC(=O)[C@H](CCCNC(=N)N)NC(=O)[C@@H]2CSCCC(=O)N3CN(CN(C3)C(=O)CCSC[C@H](NC(=O)[C@@H](N)CCCNC(=N)N)C(=O)N[C@@H](CCC3CCCCC3)C(=O)N[C@@H](CCCNC(=N)N)C(=O)N[C@@H](CC(C)C)C(=O)N3CCC[C@H]3C(=O)N2)C(=O)CCSC[C@@H](C(=O)N[C@@H](CCCNC(=N)N)C(=O)N[C@@H](Cc2c[nH]c3ccccc23)C(=O)O)NC(=O)[C@H](CCCNC(=N)N)NC1=O
132 | CC(C)C[C@@H]1NC(=O)[C@H](CCC(N)=O)NC(=O)[C@H](CCCNC(=N)N)NC(=O)[C@@H]2CSCCC(=O)N3CN(CN(C3)C(=O)CCSC[C@H](NC(=O)[C@@H](N)CCCNC(=N)N)C(=O)N[C@@H](C)C(=O)N[C@@H](CCCNC(=N)N)C(=O)N[C@@H](CC(C)C)C(=O)N3CCC[C@H]3C(=O)N2)C(=O)CCSC[C@@H](C(=O)N[C@@H](CCCNC(=N)N)C(=O)N[C@@H](Cc2c[nH]c3ccccc23)C(=O)O)NC(=O)[C@H](CCCNC(=N)N)NC1=O (H-RCARLPCRQLRCRW-OH; linker 2-7-12 via TATA)
51 | CC(C)C[C@@H]1NC(=O)[C@H](CCC(N)=O)NC(=O)[C@H](CCCNC(=N)N)NC(=O)[C@@H]2CSCCC(=O)N3CN(CN(C3)C(=O)CCSC[C@H](NC(=O)[C@@H](N)CCCNC(=N)N)C(=O)N[C@@H](Cc3ccccc3)C(=O)N[C@@H](CCCCCN)C(=O)N[C@@H](CC(C)C)C(=O)N3CCC[C@H]3C(=O)N2)C(=O)CCSC[C@@H](C(=O)N[C@@H](CCCNC(=N)N)C(=O)N[C@@H](Cc2c[nH]c3ccccc23)C(=O)O)NC(=O)[C@H](CCCNC(=N)N)NC1=O (H-RCF[hLys]LPCRQLRCRW-OH; linker 2-7-12 via TATA)
1.64 | CC(C)C[C@@H]1NC(=O)[C@H](CCC(N)=O)NC(=O)[C@H](CCCNC(=N)N)NC(=O)[C@@H]2CSCCC(=O)N3CN(CN(C3)C(=O)CCSC[C@H](NC(=O)[C@@H](N)CCCNC(=N)N)C(=O)N[C@@H](Cc3ccc([N+](=O)[O-])cc3)C(=O)N[C@@H](CCCNC(=N)N)C(=O)N[C@@H](CC(C)C)C(=O)N3CCC[C@H]3C(=O)N2)C(=O)CCSC[C@@H](C(=O)N[C@@H](CCCNC(=N)N)C(=O)N[C@@H](Cc2c[nH]c3ccccc23)C(=O)O)NC(=O)[C@H](CCCNC(=N)N)NC1=O
